Data taken from patent publication US10501479B2, “Benzenesulfonyl-asymmetric ureas and medical uses thereof” (HELSINN HEALTHCARE SA, priority 2016, dated 2019).
“And” between values parts separate entries of the source, which are not always exact repeats. Identical values can stand only once. Like-named read-outs stand apart in the source and are kept apart here.

How the values were obtained:
[1] = molecular target: T1, recombinant human ghrelin receptor (HEK293/GRLN) (Homo sapiens, UniProt Q92847); assay: Ghrelin inverse agonist potency (EC50) with IP-1 (IP-One HTRF) assay; format: cell-based; details: IP-1 assay
T1 construct: expressed in transfected cells
T1 sequence (Q92847 whole entry): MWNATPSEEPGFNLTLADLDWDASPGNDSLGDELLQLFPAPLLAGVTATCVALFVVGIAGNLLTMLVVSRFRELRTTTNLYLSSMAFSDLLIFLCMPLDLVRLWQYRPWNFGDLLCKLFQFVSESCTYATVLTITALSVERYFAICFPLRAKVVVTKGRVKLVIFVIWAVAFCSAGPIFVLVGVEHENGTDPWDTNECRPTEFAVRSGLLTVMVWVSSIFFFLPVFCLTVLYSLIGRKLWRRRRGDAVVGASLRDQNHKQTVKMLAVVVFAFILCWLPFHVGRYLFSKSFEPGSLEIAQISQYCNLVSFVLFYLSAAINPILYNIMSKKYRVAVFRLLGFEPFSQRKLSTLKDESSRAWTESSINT
Outline: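 IP-1 accumulation was measured by HTRF (IP1-d2/Tb-cryptate, 620/665 nm read after 1 hour at room temperature) following 1 hour of compound treatment at 37° C. Cells were HEK293 stably expressing human ghrelin receptor, plated a day earlier on Matrigel. Inverse agonist potency was reported as EC50.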

[2] = Metabolic stability in human liver microsomes; format: in vitro ADME
Experimental: (§1) Metabolic Stability Study
(§2) The metabolic stability of compounds in human, dog, rat and mouse liver microsomes was performed according the experimental conditions reported below:
(§3) • a) Prepare the following 5 stock solutions: • 1. Test compound stock solutions: dilute 10 mM solution of dextromethorphan (Dtr) in DMSO, 10 mM solution of diphenhydramine (DPA) in DMSO, 10 mM solution of omeprazole (Ome) in DMSO, 10 mM solution of verapamil (Ver) in DMSO, and 10 mM of an inverse agonist compound in DMSO to 0.25 mM solution each with acetonitrile/water (70/30). • 2. Buffer: 100 mM potassium phosphate Buffer (PBS) at pH 7.4 • 3. Liver microsomes (20 mg/ml): Thaw in 37° C. water bath quickly • 4. 2000 μL: of NADPH regenerating system (1.3 mM). Place this system on ice before use:
(§4) • 5. […] The test compound concentration in the wells, measured by LC-MS/MS, represents the concentration at time=0. • f) To determine the test compound concentration when t≠0, pre-incubate the NADPH regenerating system and the incubation plate containing the remaining 320 μL of incubation mixture (microsomes protein and test compound) for 5 minutes at 37° C. • g) Start the incubation reaction by adding 80 μL NADPH regenerating system to each well containing the remaining 320 μL incubation mixture. • h) After 10 min., 30 min., and 90 min. of incubation at 37° C., transfer 100 μL of the incubation mixture (microsomes protein, test compound, and NADPH) into the wells of a stop plate pre-filled with 300 μL of the cold quench solution. Shake well. • i) Centrifuge the stop plate at 5000×g for 10 minutes. Collect and dilute the supernatant 3 times with distilled water. Sample and analyze the test compound concentration for all the wells by LC-MS/MS. Animal PK Studies via i.v. (intravenous), p.o. (orally) and s.c. (subcutaneous) administrations

[3] = molecular target: T2, GHSR-1a (HEK293/GHSR1a cell line) (Homo sapiens, UniProt Q92847); assay: Ghrelin antagonist potency (IC50) with calcium FLIPR assay, ghrelin 10 nM; format: cell-based
T2 construct: expressed in transfected cells; host or cells: HEK293/GHSR1a cell line
T2 sequence (Q92847 whole entry): as above
Outline: (§5)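 Fluorescence read-out of intracellular calcium over 2 min. Agonist EC50 came from compound added alone at t=20 sec. Antagonist IC50 came from the reduction of the response to 10 nM ghrelin co-added with compound at t=20 sec. Both were fitted from dose-response data.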

[4] = Metabolic stability in mouse liver microsomes; format: in vitro ADME
Experimental: as §1, §2, §3, §4

[5] = molecular target: T2, GHSR-1a (HEK293/GHSR1a cell line); assay: Ghrelin agonist potency (EC50) with calcium FLIPR assay; format: cell-based; details: ghrelin agonist potency, read-out: Activity EC50/EMax
Outline: as §5

[6] = inverse agonist potency, read-out: EC50 (Activity)
[7] = ghrelin antagonist potency, read-out: IC50 (Activity)
[8] = ghrelin inverse agonist potency, read-out: Activity EC50
[9] = ghrelin antagonist potency, read-out: Activity IC50

SMILES: C[C@H](NC(=O)Nc1ccc(S(=O)(=O)N(C)c2ccc(CC(C)(C)N)cc2)cc1)c1cccc(Cl)c1Cl.Cl [H0971, (S)-N-(4-(2-amino-2-methylpropyl)phenyl)-4-(3-(1-(2,3-dichlorophenyl)ethyl)ureido)-N-methylbenzenesulfonamide]
- EC50 [1, 6]: 0.135 µM
- Metabolic Stability Study H = human [2]: 31.9 µL/min/mg
- IC50 [3, 7]: 0.417 µM
- Metabolic Stability Study M = mouse [4]: 24.8 µL/min/mg

SMILES: CN(C)C(C)(C)Cc1ccc(NS(=O)(=O)c2ccc(NC(=O)NCc3ccccc3)cc2)cc1 [H1009, 4-(3-benzylureido)-N-(4-(2-(dimethylamino)-2-methylpropyl)phenyl) benzenesulfonamide]
- EC50 [1, 6]: 0.0328 µM
- Metabolic Stability Study H = human [2]: 13.2 µL/min/mg
- IC50 [3, 7]: 0.252 µM
- Metabolic Stability Study M = mouse [4]: 33.8 µL/min/mg

SMILES: CCN1CCc2cc(NS(=O)(=O)c3ccc(NC(=O)N[C@@H](C)c4ccc(OC)c(Cl)c4Cl)cc3)ccc2C1 [H1018, (S)-4-(3-(1-(2,3-dichloro-4-methoxyphenyl)ethyl)ureido)-N-(2-ethyl-1,2,3,4-tetrahydroisoquinolin-6-yl)benzenesulfonamide]
- EC50 [1, 6]: 0.0137 µM
- Metabolic Stability Study H = human [2]: < 10 µL/min/mg
- IC50 [3, 7]: 0.0998 µM
- Metabolic Stability Study M = mouse [4]: 46.3 µL/min/mg

SMILES: C[C@H](NC(=O)Nc1ccc(S(=O)(=O)Cc2ccc3c(c2)CNC3)cc1)c1cccc(Cl)c1Cl.Cl [H1056, (S)-1-(1-(2,3-dichlorophenyl)ethyl)-3-(4-((isoindolin-5-ylmethyl)sulfonyl)phenyl)urea]
- EC50 [1, 6]: 0.0026 µM
- Metabolic Stability Study H = human [2]: 16.4 µL/min/mg
- IC50 [3, 7]: 0.0058 µM
- Metabolic Stability Study M = mouse [4]: 13.5 µL/min/mg

SMILES: Cc1oc(=O)oc1CN1CCc2cc(CS(=O)(=O)c3ccc(NC(=O)N[C@@H](C)c4cccc(Cl)c4Cl)cc3)ccc2C1 [H1067, (S)-1-(1-(2,3-dichlorophenyl)ethyl)-3-(4-(((2-((5-methyl-2-oxo-1,3-dioxol-4-yl)methyl)-1,2,3,4-tetrahydroisoquinolin-6-yl)methyl)sulfonyl)phenyl)urea]
- EC50 [1, 6]: 0.0045 µM
- Metabolic Stability Study H = human [2]: 326.2 µL/min/mg
- IC50 [3, 7]: 0.014 µM
- Metabolic Stability Study M = mouse [4]: 289 µL/min/mg

SMILES: Cc1oc(=O)oc1CN1CCc2cc(NS(=O)(=O)c3ccc(NC(=O)N[C@@H](C)c4cccc(Cl)c4Cl)cc3)ccc2C1 [H1068, (S)-4-(3-(1-(2,3-dichlorophenyl)ethyl)ureido)-N-(2-((5-methyl-2-oxo-1,3-dioxol-4-yl)methyl)-1,2,3,4-tetrahydroisoquinolin-6-yl)benzenesulfonamide]
- EC50 [1, 6]: 0.0084 µM
- Metabolic Stability Study H = human [2]: 199.7 µL/min/mg
- IC50 [3, 7]: 0.0263 µM
- Metabolic Stability Study M = mouse [4]: 196.4 µL/min/mg

SMILES: C[C@H](NC(=O)Nc1ccc(S(=O)(=O)Nc2ccc(CC(C)(C)O)cc2)cc1)c1cccc(Cl)c1Cl [H1076, (S)-4-(3-(1-(2,3-dichlorophenyl)ethyl)ureido)-N-(4-(2-hydroxy-2-methylpropyl)phenyl) benzenesulfonamide]
- EC50 [1, 6]: 0.0577 µM
- Metabolic Stability Study H = human [2]: 91.4 µL/min/mg
- IC50 [3, 7]: 0.515 µM
- Metabolic Stability Study M = mouse [4]: 73.9 µL/min/mg

SMILES: C[C@H](NC(=O)Nc1ccc(S(=O)(=O)Nc2ccc(CCO)cc2)cc1)c1cccc(Cl)c1Cl [H1094, (S)-4-(3-(1-(2,3-dichlorophenyl)ethyl)ureido)-N-(4-(2-hydroxyethyl)phenyl) benzenesulfonamide]
- EC50 [1, 6]: 0.118 µM
- Metabolic Stability Study H = human [2]: 55.1 µL/min/mg
- IC50 [3, 7]: 0.488 µM
- Metabolic Stability Study M = mouse [4]: 100.8 µL/min/mg

SMILES: C[C@H](NC(=O)Nc1ccc(S(=O)(=O)Nc2cnc(N)nc2)cc1)c1cccc(Cl)c1Cl [H1108]
- EC50 [1, 6]: 0.117 µM
- Metabolic Stability Study H = human [2]: 38.7 µL/min/mg
- IC50 [3, 7]: 0.422 µM
- Metabolic Stability Study M = mouse [4]: 47.5 µL/min/mg

SMILES: C[C@H](NC(=O)Nc1ccc(S(=O)(=O)Nc2ccnc(N)n2)cc1)c1cccc(Cl)c1Cl [H1125, (S)-N-(2-aminopyrimidin-4-yl)-4-(3-(1-(2,3-dichlorophenyl)ethyl)ureido) benzenesulfonamide]
- EC50 [1, 6]: 0.0933 µM
- Metabolic Stability Study H = human [2]: 10.7 µL/min/mg
- IC50 [3, 7]: 0.893 µM
- Metabolic Stability Study M = mouse [4]: 14.9 µL/min/mg

SMILES: C[C@H](NC(=O)Nc1ccc(S(=O)(=O)Nc2ccc(N)cn2)cc1)c1cccc(Cl)c1Cl.Cl [H1127, (S)-N-(5-aminopyridin-2-yl)-4-(3-(1-(2,3-dichlorophenyl)ethyl)ureido) benzenesulfonamide]
- EC50 [1, 6]: 0.0947 µM
- Metabolic Stability Study H = human [2]: 41 µL/min/mg
- IC50 [3, 7]: 0.861 µM
- Metabolic Stability Study M = mouse [4]: 59.5 µL/min/mg

SMILES: COc1ccc(C(C)NC(=O)Nc2ccc(S(=O)(=O)Cc3ccc4c(c3)CNC4)cc2)c2ccccc12 (stereo not shown) [H1154, 1-(4-((isoindolin-5-ylmethyl)sulfonyl)phenyl)-3-(1-(4-methoxynaphthalen-1-yl)ethyl)urea]
- EC50 [1, 6]: 0.0298 µM and 0.0268 µM
- Metabolic Stability Study H = human [2]: 19.2 µL/min/mg
- IC50 [3, 7]: 0.126 µM
- Metabolic Stability Study M = mouse [4]: 22.9 µL/min/mg

SMILES: CC(NC(=O)Nc1ccc(S(=O)(=O)Nc2ccc3c(c2)CNC3)cc1)c1ccccc1.Cl (stereo not shown) [H1156, N-(isoindolin-5-yl)-4-(3-(1-phenylethyl)ureido) benzenesulfonamide]
- EC50 [1, 6]: 0.00426 µM
- Metabolic Stability Study H = human [2]: 18.1 µL/min/mg
- IC50 [3, 7]: 0.0103 µM
- Metabolic Stability Study M = mouse [4]: 12.9 µL/min/mg

SMILES: CC(NC(=O)N(O)c1ccc(S(=O)(=O)Nc2ccc3c(c2)CNC3)cc1)c1cccc2ccccc12 (stereo not shown) [H1166, 4-(1-hydroxy-3-(1-(naphthalen-1-yl)ethyl)ureido)-N-(isoindolin-5-yl)benzenesulfonamide]
- EC50 [1, 6]: 0.0071 µM
- Metabolic Stability Study H = human [2]: 19.9 µL/min/mg
- IC50 [3, 7]: 0.009 µM
- Metabolic Stability Study M = mouse [4]: 14.5 µL/min/mg

SMILES: Cl.O=C(NCc1ccccc1)Nc1ccc(S(=O)(=O)Cc2ccc3c(c2)CNC3)cc1 [H1179, 1-benzyl-3-(4-((isoindolin-5-ylmethyl)sulfonyl)phenyl)urea]
- EC50 [1, 6]: 0.0374 µM
- Metabolic Stability Study H = human [2]: 14.9 µL/min/mg
- IC50 [3, 7]: 0.143 µM
- Metabolic Stability Study M = mouse [4]: < 10 µL/min/mg

SMILES: CN1Cc2ccc(CS(=O)(=O)c3ccc(NC(=O)NCc4ccccc4)cc3)cc2C1 [H1193, 1-benzyl-3-(4-(((2-methylisoindolin-5-yl)methyl)sulfonyl)phenyl)urea]
- EC50 [1, 6]: 0.064 µM
- Metabolic Stability Study H = human [2]: 49.8 µL/min/mg
- IC50 [3, 7]: 0.324 µM
- Metabolic Stability Study M = mouse [4]: 43.7 µL/min/mg

SMILES: O=C(NCc1ccccc1)Nc1ccc2c(c1)CC(c1ccc3c(c1)CNC3)S2(=O)=O (stereo not shown) [H1271, 1-benzyl-3-(2-(isoindolin-5-yl)-1,1-dioxido-2,3-dihydrobenzo[b]thiophen-5-yl)urea]
- Metabolic Stability Study H = human [2]: H < 10 M < 10 R = not reported D = not reported μL/min/mg
- IC50 ([3]; HEK293/GHSR1a, ghrelin 10 nM, read-out: Activity IC50 (ghrelin antagonist potency)): 0.005 µM
- Metabolic Stability Study M = mouse [4]: H < 10 M < 10 R = not reported D = not reported μL/min/mg

SMILES: CC(NC(=O)Nc1ccc(S(=O)(=O)Cc2ccc3c(c2)CNC3)cc1-c1ncco1)c1ccccc1 (stereo not shown) [H1500, 1-(4-((isoindolin-5-ylmethyl)sulfonyl)-2-(oxazol-2-yl)phenyl)-3-(1-phenylethyl)urea]
- EC50 [1, 8]: 0.0062 µM
- Metabolic Stability Study H = human [2]: H = 61.4 μL/min/mg
- IC50 [3, 9]: 0.0164 µM
- EC50 [5]: > 30 µM

SMILES: CC(NC(=O)Nc1ccc(S(=O)(=O)Cc2ccc3c(c2)CN(C)C3)cc1-c1ncco1)c1ccccc1 (stereo not shown) [H1501, 1-(4-(((2-methylisoindolin-5-yl)methyl)sulfonyl)-2-(oxazol-2-yl)phenyl)-3-(1-phenylethyl)urea]
- EC50 [1, 8]: 0.0181 µM
- Metabolic Stability Study H = human [2]: H = 319.6 μL/min/mg
- IC50 [3, 9]: 0.119 µM
- EC50 [5]: > 30 µM

SMILES: CC(NC(=O)Nc1ccc(S(=O)(=O)Cc2ccc3c(c2)CNC3)c(Br)c1)c1ccccc1 (stereo not shown) [H1504, 1-(3-bromo-4-((isoindolin-5-ylmethyl)sulfonyl)phenyl)-3-(1-phenylethyl)urea]
- EC50 [1, 8]: 0.00555 µM
- Metabolic Stability Study H = human [2]: H = 19.3 μL/min/mg
- IC50 [3, 9]: 0.00647 µM
- EC50 [5]: > 30 µM
